Test results as given in publication PMC3856088, “Small Molecule Binding, Docking, and Characterization of the Interaction between Pth1 and Peptidyl-tRNA” (International Journal of Molecular Sciences, 2013).

Target: T1, E. coli Pth1 (Escherichia coli, UniProt P0A7D1)
T1 construct: gene pth; wild type, 15N-labelled, expressed in E. coli W3110, purified on His-Trap FF (tag not described), 21 kDa monomer
Assay: 1H-15N HSQC NMR titration, chemical shift perturbation mapping
Details: 20 mM Bis-Tris, 100 mM NaCl, 2 mM TCEP, pH 6.6, 25 °C; 200 uM 15N Pth1; ligand:protein up to 64:1; site opposite the substrate binding face

T1 sequence (P0A7D1 2-194): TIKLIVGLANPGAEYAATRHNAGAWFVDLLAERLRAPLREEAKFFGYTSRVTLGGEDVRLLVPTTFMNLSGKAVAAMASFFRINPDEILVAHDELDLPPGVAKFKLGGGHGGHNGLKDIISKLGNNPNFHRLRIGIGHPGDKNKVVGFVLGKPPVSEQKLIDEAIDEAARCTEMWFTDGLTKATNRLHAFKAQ

Structure (SMILES): c1cc2c(cc1CN1CCNCC1)OCO2 [piperonylpiperazine]
- 1H-15N HSQC NMR titration, chemical shift perturbation mapping: The binding of piperonylpiperazine to wild type E. coli Pth1 was studied by NMR spectroscopy
